Laboratory results as given in US8044069B2, “Compounds as calcium channel blockers” (Abbott Laboratories, priority 2008, dated 2011).

What follows are compounds tested against human Cav2.2 (Homo sapiens, UniProt Q00975) (assay: Assessment of calcium channel activity using FLIPR (Ca2+ influx in IMR32 cells)). Settings: IMR32 cells endogenously expressing human Cav2.2; 60 minute pre-incubation; 2 μM nifedipine; depolarized with 80 mM KCl, 5 mM CaCl2.
Assay type: cell-based
Outline: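 FLIPR measured Ca2+ influx triggered by 80 mM KCl depolarization together with a step to 5 mM external CaCl2. Percent inhibition relative to uninhibited activity was fitted sigmoidally for IC50.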

Sequence of human Cav2.2 (Q00975 whole entry): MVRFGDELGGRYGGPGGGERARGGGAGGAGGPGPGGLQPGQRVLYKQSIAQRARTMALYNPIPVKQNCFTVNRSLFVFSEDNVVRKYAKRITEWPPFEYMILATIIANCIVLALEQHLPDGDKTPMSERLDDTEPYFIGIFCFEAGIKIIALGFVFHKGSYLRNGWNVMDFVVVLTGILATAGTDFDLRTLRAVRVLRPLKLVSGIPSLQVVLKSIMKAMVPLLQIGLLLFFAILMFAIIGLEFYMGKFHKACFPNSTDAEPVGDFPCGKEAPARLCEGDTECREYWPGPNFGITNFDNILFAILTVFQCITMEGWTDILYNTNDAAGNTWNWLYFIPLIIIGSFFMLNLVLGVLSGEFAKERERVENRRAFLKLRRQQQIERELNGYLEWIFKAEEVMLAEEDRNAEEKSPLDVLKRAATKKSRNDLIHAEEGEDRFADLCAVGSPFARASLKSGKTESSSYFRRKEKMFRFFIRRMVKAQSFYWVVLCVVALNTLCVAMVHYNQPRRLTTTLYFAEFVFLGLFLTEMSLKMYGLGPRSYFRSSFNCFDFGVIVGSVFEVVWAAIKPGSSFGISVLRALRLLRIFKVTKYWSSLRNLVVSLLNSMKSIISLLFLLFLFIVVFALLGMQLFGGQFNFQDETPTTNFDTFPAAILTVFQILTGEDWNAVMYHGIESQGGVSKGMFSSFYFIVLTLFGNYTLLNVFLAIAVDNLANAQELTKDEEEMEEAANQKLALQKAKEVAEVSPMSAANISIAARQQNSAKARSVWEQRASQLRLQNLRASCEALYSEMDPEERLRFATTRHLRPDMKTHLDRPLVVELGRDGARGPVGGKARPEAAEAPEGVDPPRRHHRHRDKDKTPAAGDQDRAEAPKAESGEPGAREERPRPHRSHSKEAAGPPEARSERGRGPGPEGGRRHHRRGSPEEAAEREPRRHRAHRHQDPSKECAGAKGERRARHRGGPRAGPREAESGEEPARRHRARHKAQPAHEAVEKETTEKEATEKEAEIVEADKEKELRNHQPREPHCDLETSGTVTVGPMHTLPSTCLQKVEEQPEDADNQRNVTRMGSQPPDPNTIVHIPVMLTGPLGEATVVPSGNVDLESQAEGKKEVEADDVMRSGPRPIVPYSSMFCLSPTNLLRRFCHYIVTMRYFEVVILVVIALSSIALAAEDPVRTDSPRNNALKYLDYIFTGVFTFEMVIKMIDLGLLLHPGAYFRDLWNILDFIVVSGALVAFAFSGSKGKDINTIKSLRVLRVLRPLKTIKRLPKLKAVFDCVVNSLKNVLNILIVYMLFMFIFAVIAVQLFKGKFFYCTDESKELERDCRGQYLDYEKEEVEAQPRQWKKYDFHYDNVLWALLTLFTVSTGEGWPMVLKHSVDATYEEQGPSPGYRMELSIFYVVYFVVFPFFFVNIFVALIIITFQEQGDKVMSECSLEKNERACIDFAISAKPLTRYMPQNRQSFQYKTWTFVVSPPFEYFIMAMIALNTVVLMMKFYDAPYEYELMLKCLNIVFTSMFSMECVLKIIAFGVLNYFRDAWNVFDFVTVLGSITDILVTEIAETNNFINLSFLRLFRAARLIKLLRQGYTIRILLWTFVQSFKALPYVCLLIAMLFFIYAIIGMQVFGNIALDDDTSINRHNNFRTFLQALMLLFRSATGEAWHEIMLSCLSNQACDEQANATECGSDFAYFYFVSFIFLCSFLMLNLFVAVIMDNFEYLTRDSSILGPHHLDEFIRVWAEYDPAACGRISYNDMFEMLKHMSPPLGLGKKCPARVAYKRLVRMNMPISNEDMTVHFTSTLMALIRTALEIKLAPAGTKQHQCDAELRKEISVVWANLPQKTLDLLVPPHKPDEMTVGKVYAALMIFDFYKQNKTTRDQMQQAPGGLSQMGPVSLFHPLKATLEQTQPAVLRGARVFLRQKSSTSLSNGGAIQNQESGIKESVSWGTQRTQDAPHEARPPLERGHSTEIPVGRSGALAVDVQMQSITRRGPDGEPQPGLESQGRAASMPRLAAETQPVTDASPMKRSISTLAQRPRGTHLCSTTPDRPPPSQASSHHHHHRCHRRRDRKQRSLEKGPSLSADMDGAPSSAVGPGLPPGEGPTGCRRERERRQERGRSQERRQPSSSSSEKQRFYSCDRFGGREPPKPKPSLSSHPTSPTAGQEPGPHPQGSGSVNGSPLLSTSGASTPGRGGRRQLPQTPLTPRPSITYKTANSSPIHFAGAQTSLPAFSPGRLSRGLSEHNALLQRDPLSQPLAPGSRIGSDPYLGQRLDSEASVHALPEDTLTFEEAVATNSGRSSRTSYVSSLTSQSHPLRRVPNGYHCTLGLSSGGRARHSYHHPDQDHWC
Sequence of human Cav2.2 (P54289 25-951 partner limits assumed): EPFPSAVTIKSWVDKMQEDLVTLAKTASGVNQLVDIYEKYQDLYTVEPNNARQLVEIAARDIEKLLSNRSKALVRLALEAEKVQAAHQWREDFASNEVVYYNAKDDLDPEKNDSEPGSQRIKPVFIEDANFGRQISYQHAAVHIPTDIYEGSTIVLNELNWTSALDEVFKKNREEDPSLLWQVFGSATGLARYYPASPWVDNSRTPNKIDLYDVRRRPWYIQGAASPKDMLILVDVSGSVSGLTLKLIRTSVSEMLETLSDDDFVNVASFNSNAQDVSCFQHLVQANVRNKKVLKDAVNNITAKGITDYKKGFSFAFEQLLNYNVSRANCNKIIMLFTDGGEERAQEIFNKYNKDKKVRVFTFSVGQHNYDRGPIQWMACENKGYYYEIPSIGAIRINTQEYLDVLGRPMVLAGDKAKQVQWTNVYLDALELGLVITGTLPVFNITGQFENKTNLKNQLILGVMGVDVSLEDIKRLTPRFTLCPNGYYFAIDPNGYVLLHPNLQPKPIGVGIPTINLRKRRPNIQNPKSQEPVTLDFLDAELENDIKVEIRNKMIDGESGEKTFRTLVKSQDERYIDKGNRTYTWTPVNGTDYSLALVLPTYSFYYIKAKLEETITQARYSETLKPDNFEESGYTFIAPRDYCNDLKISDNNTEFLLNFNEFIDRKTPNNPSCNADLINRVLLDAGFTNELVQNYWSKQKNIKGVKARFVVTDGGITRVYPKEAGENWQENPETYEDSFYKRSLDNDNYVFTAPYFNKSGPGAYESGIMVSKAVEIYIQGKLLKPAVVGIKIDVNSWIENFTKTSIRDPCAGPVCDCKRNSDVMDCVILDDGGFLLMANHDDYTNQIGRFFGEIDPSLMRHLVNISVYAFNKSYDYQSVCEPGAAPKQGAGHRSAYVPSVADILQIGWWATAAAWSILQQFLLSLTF
Sequence of human Cav2.2 (P54289 952-1103 partner limits assumed): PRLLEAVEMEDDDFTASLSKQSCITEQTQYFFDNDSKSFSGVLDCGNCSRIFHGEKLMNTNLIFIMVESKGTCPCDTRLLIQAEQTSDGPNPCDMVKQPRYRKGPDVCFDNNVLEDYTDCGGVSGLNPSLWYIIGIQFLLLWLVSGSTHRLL
Sequence of human Cav2.2 (P54284 whole entry partner): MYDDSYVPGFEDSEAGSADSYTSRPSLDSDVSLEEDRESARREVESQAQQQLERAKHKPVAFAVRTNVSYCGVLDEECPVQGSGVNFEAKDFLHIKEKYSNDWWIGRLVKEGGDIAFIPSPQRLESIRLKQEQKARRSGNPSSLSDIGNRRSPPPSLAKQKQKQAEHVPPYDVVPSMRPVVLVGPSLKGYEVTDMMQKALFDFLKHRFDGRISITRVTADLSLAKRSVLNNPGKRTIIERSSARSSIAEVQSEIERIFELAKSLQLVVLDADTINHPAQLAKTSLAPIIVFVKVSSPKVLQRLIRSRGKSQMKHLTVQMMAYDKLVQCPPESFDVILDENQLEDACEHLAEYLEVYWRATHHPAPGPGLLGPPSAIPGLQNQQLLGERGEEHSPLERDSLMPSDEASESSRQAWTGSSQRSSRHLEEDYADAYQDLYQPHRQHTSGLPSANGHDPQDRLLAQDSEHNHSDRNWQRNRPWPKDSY

| SMILES | IC50 [µM] |
| --- | --- |
| O=C(CN1CCC(c2ccc(F)cc2)(c2ccc(F)cc2)C1=O)Nc1ccc(Cl)cn1 [Example 225, 2-[3,3-bis(4-fluorophenyl)-2-oxopyrrolidin-1-yl]-N-(5-chloropyridin-2-yl)acetamide] | 2.48 |
| O=C(CN1CCC(c2ccc(F)cc2)(c2ccc(F)cc2)C1=O)Nc1cccc(C(F)(F)F)n1 [Example 226, 2-[3,3-bis(4-fluorophenyl)-2-oxopyrrolidin-1-yl]-N-[6-(trifluoromethyl)pyridin-2-yl]acetamide] | 2.46 |
| O=C(CN1CCC(c2ccc(F)cc2)C1=O)N1Cc2ccc(F)cc2C1 (stereo not shown) [Example 227, 1-[2-(5-fluoro-1,3-dihydro-2H-isoindol-2-yl)-2-oxoethyl]-3-(4-fluorophenyl)pyrrolidin-2-one] | 12.1 |
| O=C(CN1CCC(c2ccc(F)cc2)(c2ccc(F)cc2)C1=O)N1Cc2ccc(C(F)(F)F)cc2C1 [Example 228, 3,3-bis(4-fluorophenyl)-1-{2-oxo-2-[5-(trifluoromethyl)-1,3-dihydro-2H-isoindol-2-yl]ethyl}pyrrolidin-2-one] | 1.53 |
| O=C1N(Cc2nc(-c3cnccn3)no2)CCC1(c1ccccc1)c1ccccc1 [Example 230, 3,3-diphenyl-1-[(3-pyrazin-2-yl-1,2,4-oxadiazol-5-yl)methyl]pyrrolidin-2-one] | 8.99 |
| CC(C)(C)OC(=O)Nc1ccc(-c2noc(CN3CCC(c4ccccc4)(c4ccccc4)C3=O)n2)cn1 [Example 231, tert-butyl 5-{5-[(2-oxo-3,3-diphenylpyrrolidin-1-yl)methyl]-1,2,4-oxadiazol-3-yl}pyridin-2-ylcarbamate] | > 30 |
| O=C1N(Cc2nc(-c3cnccn3)no2)CCC1(c1ccc(F)cc1)c1ccc(F)cc1 [Example 232, 3,3-bis(4-fluorophenyl)-1-[(3-pyrazin-2-yl-1,2,4-oxadiazol-5-yl)methyl]pyrrolidin-2-one] | 1.91 |
| O=C1N(Cc2nc(-c3ccc(Br)cc3)no2)CCC1(c1ccc(F)cc1)c1ccc(F)cc1 [Example 233, 1-{[3-(4-bromophenyl)-1,2,4-oxadiazol-5-yl]methyl}-3,3-bis(4-fluorophenyl)pyrrolidin-2-one] | 6.29 |
| Nc1ccc(-c2noc(CN3CCC(c4ccccc4)(c4ccccc4)C3=O)n2)cn1 [Example 234, 1-{[3-(6-aminopyridin-3-yl)-1,2,4-oxadiazol-5-yl]methyl}-3,3-diphenylpyrrolidin-2-one] | 6.54 |
| N#Cc1ccc(-c2noc(CN3CCC(c4ccc(F)cc4)(c4ccc(F)cc4)C3=O)n2)cc1 [Example 235, 4-(5-{[3,3-bis(4-fluorophenyl)-2-oxopyrrolidin-1-yl]methyl}-1,2,4-oxadiazol-3-yl)benzonitrile] | 3.18 |
| O=C1C(c2ccc(F)cc2)CCN1Cc1nc(-c2ccc(C(F)(F)F)nc2)no1 (stereo not shown) [Example 238, 3-(4-fluorophenyl)-1-({3-[6-(trifluoromethyl)pyridin-3-yl]-1,2,4-oxadiazol-5-yl}methyl)pyrrolidin-2-one] | 12.4 |
| O=C(CN1CCC(c2ccc(F)cc2)(c2ccc(F)cc2)C1=O)NC1CN(Cc2ccc(C(F)(F)F)c(F)c2)C1 [Example 239, 2-[3,3-bis(4-fluorophenyl)-2-oxopyrrolidin-1-yl]-N-{1-[3-fluoro-4-(trifluoromethyl)benzyl]azetidin-3-yl}acetamide] | 1.74 |
| O=C(CN1CCCC(c2ccccc2)(c2ccccc2)C1=O)N1CC(c2ccc(C(F)(F)F)cc2)C1 [Example 240, 1-(2-oxo-2-{3-[4-(trifluoromethyl)phenyl]azetidin-1-yl}ethyl)-3,3-diphenylpiperidin-2-one] | 3.07 |
| N#Cc1ccc(C2CN(C(=O)CN3CCCC(c4ccccc4)(c4ccccc4)C3=O)C2)cc1 [Example 241, 4-{1-[(2-oxo-3,3-diphenylpiperidin-1-yl)acetyl]azetidin-3-yl}benzonitrile] | 8.96 |
| O=C(CN1CCC(c2ccc(F)cc2)(c2ccc(F)cc2)C1=O)NC1CN(Cc2ccccc2)C1 [Example 242, N-(1-benzylazetidin-3-yl)-2-[3,3-bis(4-fluorophenyl)-2-oxopyrrolidin-1-yl]acetamide] | 3.17 |
| O=C(CN1CCCC(c2ccccc2)(c2ccccc2)C1=O)N1CCC(c2cccc(C(F)(F)F)c2)CC1 [Example 243, 1-(2-oxo-2-{4-[3-(trifluoromethyl)phenyl]piperidin-1-yl}ethyl)-3,3-diphenylpiperidin-2-one] | 4.37 |
| O=C(CN1CCCC(c2ccccc2)(c2ccccc2)C1=O)N1CCC(c2ccc(F)cc2)CC1 [Example 244, 1-{2-[4-(4-fluorophenyl)piperidin-1-yl]-2-oxoethyl}-3,3-diphenylpiperidin-2-one] | 3.69 |
| O=C(CN1CCCC(c2ccccc2)(c2ccccc2)C1=O)N1CCC(c2ccc(C(F)(F)F)cc2)CC1 [Example 245, 1-(2-oxo-2-{4-[4-(trifluoromethyl)phenyl]piperidin-1-yl}ethyl)-3,3-diphenylpiperidin-2-one] | 4.48 |
| O=C(CN1CCC(c2ccccc2)(c2ccccc2)C1=O)Nc1ccc(C(F)(F)F)cn1 [Example 246, 2-(2-oxo-3,3-diphenylpyrrolidin-1-yl)-N-[5-(trifluoromethyl)pyridin-2-yl]acetamide] | 3.77 |

| SMILES | IC50 [µM] |
| --- | --- |
| O=C(CN1CCC(c2ccccc2)(c2ccccc2)C1=O)Nc1cccc(C(F)(F)F)n1 [Example 247, 2-(2-oxo-3,3-diphenylpyrrolidin-1-yl)-N-[6-(trifluoromethyl)pyridin-2-yl]acetamide] | 4.48 |
| O=C(CN1CCC(c2ccccc2)(c2ccccc2)C1=O)Nc1ccc(C(F)(F)F)nc1 [Example 248, 2-(2-oxo-3,3-diphenylpyrrolidin-1-yl)-N-[6-(trifluoromethyl)pyridin-3-yl]acetamide] | 8.84 |
| O=C(CN1CCC(c2ccccc2)(c2ccccc2)C1=O)Nc1ncc(C(F)(F)F)cc1Cl [Example 249, N-[3-chloro-5-(trifluoromethyl)pyridin-2-yl]-2-(2-oxo-3,3-diphenylpyrrolidin-1-yl)acetamide] | 6.48 |
| O=C(CN1CCCC(c2ccccc2)(c2ccccc2)C1=O)N1CCC(O)(c2ccc(Cl)c(C(F)(F)F)c2)CC1 [Example 250, 1-(2-{4-[4-chloro-3-(trifluoromethyl)phenyl]-4-hydroxypiperidin-1-yl}-2-oxoethyl)-3,3-diphenylpiperidin-2-one] | 4.13 |
| N#Cc1ccc(NC(=O)CN2CCC(c3ccccc3)(c3ccccc3)C2=O)nc1 [Example 251, N-(5-cyanopyridin-2-yl)-2-(2-oxo-3,3-diphenylpyrrolidin-1-yl)acetamide] | 8.32 |
| N#Cc1ccc(NC(=O)CN2CCC(c3ccc(F)cc3)(c3ccc(F)cc3)C2=O)nc1 [Example 252, 2-[3,3-bis(4-fluorophenyl)-2-oxopyrrolidin-1-yl]-N-(5-cyanopyridin-2-yl)acetamide] | 2.97 |
| O=C(CN1CCC(c2ccc(F)cc2)C1=O)N1CCc2ccccc2C1 (stereo not shown) [Example 253, 1-[2-(3,4-dihydroisoquinolin-2(1H)-yl)-2-oxoethyl]-3-(4-fluorophenyl)pyrrolidin-2-one] | 10.6 |
| O=C(CN1CCC(c2ccc(F)cc2)C1=O)N1CCc2ccc(C(F)(F)F)cc2C1 (stereo not shown) [Example 254, 3-(4-fluorophenyl)-1-{2-oxo-2-[7-(trifluoromethyl)-3,4-dihydroisoquinolin-2(1H)-yl]ethyl}pyrrolidin-2-one] | 4.32 |
| O=C(CN1CCC(c2ccc(F)cc2)C1=O)N1CCc2ccc(F)cc2C1 (stereo not shown) [Example 255, 1-[2-(7-fluoro-3,4-dihydroisoquinolin-2(1H)-yl)-2-oxoethyl]-3-(4-fluorophenyl)pyrrolidin-2-one] | 9.89 |
| O=C(CN1CCC(c2ccc(F)cc2)C1=O)N1CCc2ccc(Cl)cc2C1 (stereo not shown) [Example 256, 1-[2-(7-chloro-3,4-dihydroisoquinolin-2(1H)-yl)-2-oxoethyl]-3-(4-fluorophenyl)pyrrolidin-2-one] | 7.51 |
| O=C(CN1CCC(c2ccc(F)cc2)C1=O)N1CCc2cc(Cl)ccc2C1 (stereo not shown) [Example 257, 1-[2-(6-chloro-3,4-dihydroisoquinolin-2(1H)-yl)-2-oxoethyl]-3-(4-fluorophenyl)pyrrolidin-2-one] | 6.16 |
| O=C(CN1CCC(c2ccc(F)cc2)(c2ccc(F)cc2)C1=O)N1CCc2ccccc2C1 [Example 258, 1-[2-(3,4-dihydroisoquinolin-2(1H)-yl)-2-oxoethyl]-3,3-bis(4-fluorophenyl)pyrrolidin-2-one] | 4.45 |
| O=C(CN1CCC(c2ccc(F)cc2)(c2ccc(F)cc2)C1=O)N1CCc2ccc(C(F)(F)F)cc2C1 [Example 259, 3,3-bis(4-fluorophenyl)-1-{2-oxo-2-[7-(trifluoromethyl)-3,4-dihydroisoquinolin-2(1H)-yl]ethyl}pyrrolidin-2-one] | 2.55 |
| O=C(CN1CCCC(c2ccccc2)(c2ccccc2)C1=O)N1CCc2ccccc2C1 [Example 260, 1-[2-(3,4-dihydroisoquinolin-2(1H)-yl)-2-oxoethyl]-3,3-diphenylpiperidin-2-one] | 7.12 |
| O=C(CN1CCCC(c2ccccc2)(c2ccccc2)C1=O)N1CCc2ccc(C(F)(F)F)cc2C1 [Example 261, 1-{2-oxo-2-[7-(trifluoromethyl)-3,4-dihydroisoquinolin-2(1H)-yl]ethyl}-3,3-diphenylpiperidin-2-one] | 4.44 |
| O=C1N(Cc2nc(CCc3ccccc3Cl)no2)CCCC1(c1ccccc1)c1ccccc1 [Example 262, 1-({3-[2-(2-chlorophenyl)ethyl]-1,2,4-oxadiazol-5-yl}methyl)-3,3-diphenylpiperidin-2-one] | 3.39 |
| O=C1N(Cc2nc(COc3ccc(Cl)cc3)no2)CCCC1(c1ccccc1)c1ccccc1 [Example 263, 1-({3-[(4-chlorophenoxy)methyl]-1,2,4-oxadiazol-5-yl}methyl)-3,3-diphenylpiperidin-2-one] | 3.49 |
| O=C(CN1CCC(c2ccc(C(F)(F)F)cc2)C1=O)N1Cc2ccc(F)cc2C1 (stereo not shown) [Example 266, 1-[2-(5-fluoro-1,3-dihydro-2H-isoindol-2-yl)-2-oxoethyl]-3-[4-(trifluoromethyl)phenyl]pyrrolidin-2-one] | 10.1 |
